Results as given in patent US20220175776A1, “COMBINATION OF CHIR99021 AND VALPROIC ACID FOR TREATING HEARING LOSS” (Frequency Therapeutics, Inc., priority 2019, published 2022).
Like-named read-outs stand apart in the source and are kept apart here.

Tests used:
[1] = system: Lgr5+ cochlear cells; assay: Lgr5+ Assay (in vitro Lgr5+ cell proliferation assay); assay type: cell-based
[2] = molecular target: T1, KDM1b (Homo sapiens, UniProt Q8NB78); conditions: Table 6; read-out: Select KDM 1b; cited from earlier work
T1 sequence (Q8NB78 1-822): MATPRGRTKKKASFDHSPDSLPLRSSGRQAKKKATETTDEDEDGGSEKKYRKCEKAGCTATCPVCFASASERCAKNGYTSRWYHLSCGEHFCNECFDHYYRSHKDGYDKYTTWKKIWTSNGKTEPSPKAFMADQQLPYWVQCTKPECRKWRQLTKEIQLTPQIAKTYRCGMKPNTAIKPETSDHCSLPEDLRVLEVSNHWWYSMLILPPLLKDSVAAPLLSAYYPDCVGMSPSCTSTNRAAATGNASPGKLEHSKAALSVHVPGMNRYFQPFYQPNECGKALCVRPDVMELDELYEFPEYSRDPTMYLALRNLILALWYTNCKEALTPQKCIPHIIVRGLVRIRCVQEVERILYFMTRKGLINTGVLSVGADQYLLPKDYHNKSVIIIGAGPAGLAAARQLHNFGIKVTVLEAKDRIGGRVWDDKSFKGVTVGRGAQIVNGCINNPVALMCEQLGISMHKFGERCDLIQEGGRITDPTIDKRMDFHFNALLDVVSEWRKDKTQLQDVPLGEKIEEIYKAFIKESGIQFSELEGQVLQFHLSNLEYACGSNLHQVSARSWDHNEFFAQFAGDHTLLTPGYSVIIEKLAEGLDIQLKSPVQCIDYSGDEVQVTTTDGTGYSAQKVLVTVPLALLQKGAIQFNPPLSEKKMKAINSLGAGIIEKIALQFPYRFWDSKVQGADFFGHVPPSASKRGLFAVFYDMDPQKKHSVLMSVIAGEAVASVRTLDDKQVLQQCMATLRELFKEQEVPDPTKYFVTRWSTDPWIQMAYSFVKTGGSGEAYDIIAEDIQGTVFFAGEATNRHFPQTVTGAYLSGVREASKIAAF

[3] = molecular target: T2, MAO A (Homo sapiens, UniProt P21397); conditions: Table 6; marked A or first value of cell; read-out: Select MAOs A and B: MAO A; cited from earlier work
T2 sequence (P21397 1-527): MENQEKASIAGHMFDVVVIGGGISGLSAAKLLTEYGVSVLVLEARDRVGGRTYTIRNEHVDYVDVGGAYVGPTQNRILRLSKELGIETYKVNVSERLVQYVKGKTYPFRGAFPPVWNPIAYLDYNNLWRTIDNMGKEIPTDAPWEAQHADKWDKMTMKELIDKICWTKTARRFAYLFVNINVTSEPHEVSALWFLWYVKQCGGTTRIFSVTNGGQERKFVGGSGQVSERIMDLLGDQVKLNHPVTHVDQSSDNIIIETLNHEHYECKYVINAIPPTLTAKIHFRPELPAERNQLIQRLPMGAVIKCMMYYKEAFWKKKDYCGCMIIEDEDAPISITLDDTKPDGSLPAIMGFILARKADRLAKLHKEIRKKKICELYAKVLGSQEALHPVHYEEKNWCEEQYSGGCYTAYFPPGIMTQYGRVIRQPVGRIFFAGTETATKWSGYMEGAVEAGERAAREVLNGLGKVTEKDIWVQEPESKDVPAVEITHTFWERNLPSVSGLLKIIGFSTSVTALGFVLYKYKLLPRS

[4] = molecular target: T3, LSD1 (Homo sapiens, UniProt O60341); conditions: Table 6; cited from earlier work
[5] = molecular target: EZH2 (Homo sapiens, UniProt O75530+Q15910); conditions: Table 7; includes EED, SAM-competitive and SAH-hydrolase inhibitors; read-out: pKi or IC50 (converted); cited from earlier work
Sequence of EZH2 (Homo sapiens, UniProt O75530+Q15910) (Q15910 whole entry): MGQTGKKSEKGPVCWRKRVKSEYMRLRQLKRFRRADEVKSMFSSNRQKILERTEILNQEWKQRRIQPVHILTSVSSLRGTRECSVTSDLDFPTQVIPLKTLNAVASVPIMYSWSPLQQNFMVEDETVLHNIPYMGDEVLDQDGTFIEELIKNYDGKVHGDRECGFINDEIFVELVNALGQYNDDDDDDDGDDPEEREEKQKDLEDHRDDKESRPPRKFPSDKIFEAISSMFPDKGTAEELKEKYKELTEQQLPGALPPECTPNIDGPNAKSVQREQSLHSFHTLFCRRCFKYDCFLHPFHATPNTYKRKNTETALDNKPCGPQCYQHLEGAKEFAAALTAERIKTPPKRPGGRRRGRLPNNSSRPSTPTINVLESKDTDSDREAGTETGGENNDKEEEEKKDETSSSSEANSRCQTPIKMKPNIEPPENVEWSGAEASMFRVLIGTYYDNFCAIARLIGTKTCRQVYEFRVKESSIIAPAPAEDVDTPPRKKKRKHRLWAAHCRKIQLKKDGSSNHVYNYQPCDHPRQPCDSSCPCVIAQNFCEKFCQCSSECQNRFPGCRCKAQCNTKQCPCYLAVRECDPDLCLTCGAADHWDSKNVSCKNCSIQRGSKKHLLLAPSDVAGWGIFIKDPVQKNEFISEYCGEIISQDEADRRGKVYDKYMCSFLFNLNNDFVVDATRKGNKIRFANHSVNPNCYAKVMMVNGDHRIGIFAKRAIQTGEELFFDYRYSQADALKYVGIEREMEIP
Sequence of EZH2 (Homo sapiens, UniProt O75530+Q15910) (O75530 whole entry): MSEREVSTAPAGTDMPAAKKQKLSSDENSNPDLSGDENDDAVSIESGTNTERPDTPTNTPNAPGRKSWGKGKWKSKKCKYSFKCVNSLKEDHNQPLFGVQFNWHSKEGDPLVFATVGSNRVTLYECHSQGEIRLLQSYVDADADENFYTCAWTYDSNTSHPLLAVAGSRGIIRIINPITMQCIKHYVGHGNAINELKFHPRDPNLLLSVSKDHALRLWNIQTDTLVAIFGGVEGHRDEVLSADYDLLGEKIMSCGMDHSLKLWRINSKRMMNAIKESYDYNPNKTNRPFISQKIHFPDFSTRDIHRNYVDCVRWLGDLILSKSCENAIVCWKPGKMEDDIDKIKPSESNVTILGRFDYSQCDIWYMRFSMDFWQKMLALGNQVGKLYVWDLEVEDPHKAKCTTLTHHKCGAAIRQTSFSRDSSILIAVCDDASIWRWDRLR
Sequence of EZH2 (Homo sapiens, UniProt O75530+Q15910) (Q15022 whole entry partner): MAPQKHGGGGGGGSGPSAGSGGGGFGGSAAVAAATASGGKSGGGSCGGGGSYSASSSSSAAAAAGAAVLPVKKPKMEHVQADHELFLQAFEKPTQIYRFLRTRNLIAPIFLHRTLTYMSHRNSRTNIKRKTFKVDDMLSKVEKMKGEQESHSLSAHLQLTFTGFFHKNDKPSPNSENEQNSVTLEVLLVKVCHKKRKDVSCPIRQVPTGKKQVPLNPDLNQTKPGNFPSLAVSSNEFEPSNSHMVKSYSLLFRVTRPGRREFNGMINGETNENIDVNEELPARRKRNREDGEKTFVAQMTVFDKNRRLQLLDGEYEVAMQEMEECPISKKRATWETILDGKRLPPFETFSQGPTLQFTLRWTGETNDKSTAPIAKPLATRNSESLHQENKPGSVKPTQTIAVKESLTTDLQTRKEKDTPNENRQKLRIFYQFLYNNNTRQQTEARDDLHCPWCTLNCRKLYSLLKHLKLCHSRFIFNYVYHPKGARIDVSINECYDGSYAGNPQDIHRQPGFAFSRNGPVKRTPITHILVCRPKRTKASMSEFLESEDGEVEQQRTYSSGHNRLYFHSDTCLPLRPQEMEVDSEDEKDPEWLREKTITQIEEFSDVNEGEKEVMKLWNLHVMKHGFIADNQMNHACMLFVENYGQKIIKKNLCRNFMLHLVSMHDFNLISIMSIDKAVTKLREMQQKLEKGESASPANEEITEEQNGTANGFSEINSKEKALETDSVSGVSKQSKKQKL
Sequence of EZH2 (Homo sapiens, UniProt O75530+Q15910) (Q09028 whole entry partner): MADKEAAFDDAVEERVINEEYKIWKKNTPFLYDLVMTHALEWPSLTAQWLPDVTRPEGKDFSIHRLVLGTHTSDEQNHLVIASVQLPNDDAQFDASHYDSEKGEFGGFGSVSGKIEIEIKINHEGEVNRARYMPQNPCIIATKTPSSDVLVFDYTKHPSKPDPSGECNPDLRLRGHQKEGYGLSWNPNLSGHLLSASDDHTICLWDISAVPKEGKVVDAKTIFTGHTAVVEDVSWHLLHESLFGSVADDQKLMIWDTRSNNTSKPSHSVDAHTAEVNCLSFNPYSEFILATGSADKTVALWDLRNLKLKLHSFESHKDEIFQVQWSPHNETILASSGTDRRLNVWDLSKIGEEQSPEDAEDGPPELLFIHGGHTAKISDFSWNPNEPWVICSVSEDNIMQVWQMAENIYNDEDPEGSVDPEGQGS

[6] = system: KDM2; conditions: Table 9; read-out: Select KDM2; cited from earlier work
[7] = molecular target: T3, LSD1; conditions: Table 6, LSD1; read-out: pKi or IC50 (converted); cited from earlier work
[8] = system: KDM; conditions: Table 9; cited from earlier work
[9] = molecular target: EZH-1 (Homo sapiens, UniProt Q92800); conditions: Table 7, cited from earlier work
Sequence of EZH-1 (Q92800 whole entry): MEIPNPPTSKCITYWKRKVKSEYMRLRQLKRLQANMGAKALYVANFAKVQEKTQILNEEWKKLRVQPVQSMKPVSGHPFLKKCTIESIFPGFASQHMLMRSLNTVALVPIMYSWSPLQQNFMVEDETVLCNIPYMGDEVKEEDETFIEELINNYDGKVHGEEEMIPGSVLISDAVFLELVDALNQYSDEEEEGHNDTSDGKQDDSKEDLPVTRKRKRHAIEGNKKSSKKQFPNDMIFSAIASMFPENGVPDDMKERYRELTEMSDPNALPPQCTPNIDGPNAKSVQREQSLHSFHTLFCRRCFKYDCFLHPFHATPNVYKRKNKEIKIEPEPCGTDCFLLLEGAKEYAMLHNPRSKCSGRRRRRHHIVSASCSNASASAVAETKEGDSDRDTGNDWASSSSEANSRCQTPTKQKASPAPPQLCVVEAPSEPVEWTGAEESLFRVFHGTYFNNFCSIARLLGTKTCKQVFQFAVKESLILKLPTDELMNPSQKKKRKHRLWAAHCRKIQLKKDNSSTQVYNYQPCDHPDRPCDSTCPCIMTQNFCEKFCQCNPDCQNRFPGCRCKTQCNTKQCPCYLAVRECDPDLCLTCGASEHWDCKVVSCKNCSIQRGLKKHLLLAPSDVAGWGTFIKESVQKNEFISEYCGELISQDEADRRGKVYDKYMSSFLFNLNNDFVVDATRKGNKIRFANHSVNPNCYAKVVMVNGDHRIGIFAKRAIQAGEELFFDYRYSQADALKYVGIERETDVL
Sequence of EZH-1 (O75530 whole entry partner): as the sequence (O75530 whole entry) above
Sequence of EZH-1 (Q15022 whole entry partner): as the sequence (Q15022 whole entry partner) above
Sequence of EZH-1 (Q09028 whole entry partner): as the sequence (Q09028 whole entry partner) above

[10] = human, in vivo
Text: Patients underwent physical examination of weight and height, vital signs (body temperature, pulse rate, blood pressure), 12-lead electrocardiogram (ECG), drug screen, clinical laboratory testing (hematology, serum chemistry, urinalysis), urine pregnancy test, and hepatitis B and C antibody tests.

[11] = system: MAOs A and B; conditions: Table 6, single value, isoform not stated; read-out: Select MAOs A and B; cited from earlier work
[12] = system: TAZ; conditions: Table 10; literature, cells not named; cited from earlier work
[13] = system: HDAC; conditions: Table 4, HDAC class; cited from earlier work
[14] = molecular target: EZH2 (Homo sapiens, UniProt Q15910); conditions: Table 7; literature, cells not named; cited from earlier work
Sequence of EZH2 (Homo sapiens, UniProt Q15910) (Q15910 whole entry): as the sequence (Q15910 whole entry) above
Sequence of EZH2 (Homo sapiens, UniProt Q15910) (O75530 whole entry partner): as the sequence (O75530 whole entry) above
Sequence of EZH2 (Homo sapiens, UniProt Q15910) (Q15022 whole entry partner): as the sequence (Q15022 whole entry partner) above
Sequence of EZH2 (Homo sapiens, UniProt Q15910) (Q09028 whole entry partner): as the sequence (Q09028 whole entry partner) above

[15] = Table 6, human; cited from earlier work
[16] = Perilymph sampling after intratympanic injection, mass spectrometry; assay type: in vivo; conditions: mice, perilymph of 7 animals, within 0.5 hours after intratympanic injection of 10 µL with 87.6 mg/ml NaVPA and 1.39 mg/ml CHIR99021
Procedure: The effects of CHIR99021 and valproic acid (VPA) on hearing in mice with SNHL were examined. Ten-week-old CBA/CaJ mice were deafened using an established method in which mice were exposed to 8-16 kHz octave band noise for 2 hours at ≥116 dB (Wang et al., 2002). […] Auditory brainstem responses (ABRs) were obtained using tone-burst stimuli for frequencies spanning ˜80% of the cochlea 24 hours after noise administration to establish a baseline for recovery. Animals were dosed once following the 24 hour ABR. Distortion product otoacoustic emissions (DPOAEs) were not routinely analyzed since thresholds after treatment were above DPOAE detection levels. CHIR99021 and VPA were delivered locally by intratympanic injection into the middle ear using a pulled glass pipette, a technique that mimics the standard clinical middle ear injection technique used in humans. The delivery vehicle was adapted from previous work using thermo-reversible poloxamer gels to deliver drugs into the middle ear for diffusion into the cochlea (Salt et al, 2011; Wang et al, 2009). […] Using established techniques (Hirose et al., 2014), perilymph was sampled from 7 animals and analyzed using mass spectrometry to determine entry of CHIR99021 and VPA into the cochlea. Within 0.5 hours, CHIR99021 was detected at 3.5 μM+1.5 μM and VPA was detected at 310.3 μM+51.8 μM. […]

[17] = Table 10, TAZ activators, concentration range
[18] = Table 1, GSK3 inhibitors, concentration range
[19] = Table 7, EZH2 inhibitors, concentration range

C=CCNc1nc(N)c(C(=O)c2ccc(Cl)s2)s1 [IBS008738]
Lgr5+ Assay [1, 17]: 1.1 to 30 µM

N[C@H]1CC[C@H](N[C@@H]2C[C@H]2c2ccccc2)CC1 [ORY-1001]
Lgr5+ Assay ([1]; Table 6): 0.041 µM
IC50 [2]: > 100 µM
IC50 [3]: > 100 µM
Literat. Cell [4]: 0.5 to 3 nM

Cc1coc2c1C(=O)C(=O)c1c-2ccc2c1CC[C@H](O)[C@]2(C)O [Tanshindiol B]
IC50 [5]: 0.52 µM

O=C(O)CCN(O)C(=O)CCCCCCCCC1CC1 [TC-E 5002]
IC50 [6]: 6.8 µM

CC(C)=CCC/C(C)=C/CC/C(C)=C/CC/C(C)=C/C(=O)O [geranylgeranoic acid]
IC50 [7]: 120 µM

Nc1ncnc2c1ncn2[C@@H]1O[C@H](C[C@@H](N)CC[C@H](N)C(=O)O)[C@@H](O)[C@H]1O [Sinefungin]
IC50 [5]: 0.02 µM

O=C(O)CCNc1cc(N2CCc3ccccc3CC2)nc(-c2ccccn2)n1 [GSK-J1]
Lit Cell [8]: 50 µM

COc1cc(C)[nH]c(=O)c1CN1CCc2c(Cl)cc([C@H](OC)C3COC3)c(Cl)c2C1=O [PF-06821497]
IC50 [5]: < 0.001 µM
Select vs EZH-1 ([9]; given as a concentration): 70 nM

CCC(CC)n1ccc2c(C(=O)NCc3c(C)cc(C)[nH]c3=O)cc(C#N)cc21 [Compound E11]
Lgr5+ Assay ([1]; Table 7, EZH2 inhibitors, concentration): 5 µM
IC50 [5]: 0.013 µM
Select vs EZH-1 ([9]; given as fold): 90x
IC50 [7]: 0.243 µM

Cc1c[nH]c(-c2cnc(NCCNc3ccc(C#N)cn3)nc2-c2ccc(Cl)cc2Cl)n1 [CHIR99021]
Lgr5+ Assay [1, 18]: 2 to 6 µM
time until cleared from the systemic circulation [10]: ≤ 24 h

Cc1cc(C)c(CNC(=O)c2cc(-c3ccc(N4CCN(C)CC4)nc3)cc3c2cnn3C(C)C)c(=O)[nH]1 [GSK926]
IC50 [5]: 0.0079 µM

CCCc1cc(C)[nH]c(=O)c1CNC(=O)c1cc(-c2ccnc(N3CCN(C)CC3)c2)cc2c1cnn2C(C)C [GSK343]
IC50 [5]: 0.0012 µM
Select vs EZH-1 ([9]; given as fold): 60x

Thiourea
IC50 [11]: > 1250 µM

Cc1coc2c1C(=O)C(=O)c1c-2ccc2c1CC[C@@H](O)[C@]2(C)O [Tanshindiol C]
IC50 [5]: 0.55 µM

O=C(O)c1ccc(CN2CCC(CN[C@@H]3C[C@H]3c3ccccc3)CC2)cc1 [GSK-2879552]
IC50 [11]: 20 µM

C=CCNc1nc(N)c(C(=O)c2ccc(F)s2)s1 [TT10]
Lgr5+ Assay [1, 17]: 1 to 10 µM
Lit Cell [12]: 1 µM

C#CCC(CCCCCC)C(=O)O (stereo not drawn) [2-hexyl-4-pentynoic acid]
Class selectivity [13]: Class I

C#CCN(C)Cc1ccccc1 [Pargyline]
IC50 [7]: 1000 µM

CCCC(CCC)C(=O)[O-].[Na+] [Sodium Valproate]
Class selectivity [13]: Class I

Cc1cc(C)c(CN2CCc3c(Cl)cc(-c4c(C)noc4C)c(Cl)c3C2=O)c(=O)[nH]1 [PF-06726304]
IC50 [5]: 0.0011 µM
Lit Cell Poten [14]: 10 to 25 nM

C/C(=N\NC(=O)c1cccc(S(=O)(=O)N2CCOCC2)c1)c1cc(Cl)ccc1O [SP-2509]
IC50 [11]: > 300 µM

CC(C)=CCC/C(C)=C/CC/C(C)=C/CC/C(C)=C/CO [Geranylgeraniol]
IC50 [7]: 80 µM

N[C@@H]1C[C@H]1c1ccccc1 [TCP]
Lgr5+ Assay ([1]; Table 6, concentration range): 0.1 to 20 µM
Human Plasma Conc, Cmax [15]: 30 to 200 ng/mL

CCCc1cc(C)[nH]c(=O)c1CNC(=O)c1cc(-c2ccc(N3CCN(C(=O)CCOCCOCCOCCOCCOCCOCCOCCOCCOCCOCCOCCOCCNC(=O)CCCC[C@@H]4SC[C@@H]5NC(=O)N[C@@H]54)CC3)nc2)cc2c1cnn2C(C)C [UNC 2399]
Lgr5+ Assay [1, 19]: 0.1 to 10 µM

CCCCc1nc2cc(-c3cccnc3)c(C)nc2n1Cc1ccc(-c2ccccc2-c2nn[nH]n2)cc1 [TM-25659]
Lgr5+ Assay [1, 17]: 10 to 100 µM
Lit Cell [12]: 10 to 100 µM

CCCc1cc(C)[nH]c(=O)c1CNC(=O)c1cc(-c2ccc(N3CCN(C(C)C)CC3)nc2)cc2c1cnn2C(C)C [UNC1999]
IC50 [5]: 0.01 µM

N#Cc1ccc2[nH]c(O)c(-c3ccc(CN4CCOCC4)cn3)c2c1 [AZD 1080]
Lgr5+ Assay [1, 18]: 1 to 5 µM

N#Cc1c2c(c3nncn3c1NCc1ccco1)CN(Cc1ccccc1)CC2 [EED162]
IC50 [5]: 0.03 µM

Oc1ccc(C=Cc2cc(O)cc(O)c2)cc1 [Resveratrol]
IC50 [7]: 15 µM

Nc1nccc2c1ncn2[C@@H]1C=C(CO)[C@@H](O)[C@H]1O [DZNep]
Lgr5+ Assay ([1]; Table 7, EZH2 inhibitors, result in words): Activity
Lit Cell Poten [14]: 1000 nM

COc1cc(C)[nH]c(=O)c1CNC(=O)c1c(C)n([C@H](C)C2CCOCC2)c2ccccc12 [CPI-360]
Lgr5+ Assay [1, 19]: 0.1 to 10 µM

Cc1ccc(C(=O)Nc2c[nH]nc2C(=O)NCCCOC(C)C)cn1 [GSK XXII]
Lgr5+ Assay [1, 18]: 0.2 to 1 µM

CN1CCN(C(=O)[C@H](CCCN[C@@H]2C[C@H]2c2ccc(F)cc2)NC(=O)c2ccc(-n3ccnn3)cc2)CC1 [IMG-7289]
Human Plasma Conc, Cmax [15]: 63 ng/mL

CCc1c(N(CC)C2CCOCC2)cc2oc(C3CCN(C(C)C)CC3)cc2c1C(=O)NCc1c(C)cc(C)[nH]c1=O [EBI-2511]
IC50 [5]: 0.004 µM

CCCC(CCC)C(=O)O [VPA, valproic acid]
concentration detected in perilymph [16]: 310.3 µM
time to peak plasma concentrations [10]: ≤ 2 h
time until cleared from the systemic circulation [10]: ≤ 24 h
